# “Also recorded” adds a separate entry of the source. Where two headings read alike, the source gives them in different places.
# Key:
# S. enterica ATCC 14028 = experiment: MIC determination; assay type: cell-based; settings: Salmonella enterica, ATCC14028
# E. coli MC1061 = experiment: MIC determination; assay type: cell-based; settings: Escherichia coli; Table 5; Mueller-Hinton medium; D = E. coli MC1061; read-out: MIC strain D
# E. cloacae ATCC 13047 = experiment: MIC determination; assay type: cell-based; settings: Enterobacter cloacae, ATCC13047
# [1] = tested on: biofilm formed by Ab ATCC 19606; experiment: Biofilm prevention assay (crystal violet); settings: compound added while biofilm is forming
# Ab ATCC 19606 [2] = experiment: Development of resistance, 15-passage MIC assay; assay type: cell-based, Acinetobacter baumannii; settings: 15 passages at ½×MIC
# S. aureus ATCC 25923 = experiment: MIC determination; assay type: cell-based; settings: Staphylococcus aureus, ATCC25923
# B. anthracis Sterne F32 = experiment: microbe, parasite or virus in culture; assay type: cell-based; settings: Bacillus anthracis
# [3] = tested on: human embryonic kidney cells (HEK-293); experiment: Mammalian cytotoxicity assay (resazurin); settings: HEK-293, 32 μg/mL (printed 32 g/mL for 3e), 24 h
# Y. pestis CO92 = experiment: microbe, parasite or virus in culture; assay type: cell-based; settings: Yersinia pestis, CO92, read-out: MIC Y. pestis CO92
# M. smegmatis = experiment: MIC determination; assay type: cell-based, Mycobacterium smegmatis; settings: Mycolicibacterium smegmatis; Table 4
# P. aeruginosa ATCC 27853 = experiment: MIC determination; assay type: cell-based; settings: Pseudomonas aeruginosa, ATCC27853; Table 5; Mueller-Hinton medium; G = P. aeruginosa ATCC 27853; read-out: MIC strain G
# K. pneumoniae ATCC 27736 = experiment: MIC determination; assay type: cell-based; settings: Klebsiella pneumoniae, ATCC27736; Table 5; Mueller-Hinton medium; F = K. pneumoniae ATCC 27736; read-out: MIC strain F
# [4] = tested on: preformed biofilm of Ab ATCC 19606; experiment: Biofilm disruption assay (crystal violet); settings: compound added after formation of biofilm
# [5] = tested on: S. epidermidis ATCC 12228; experiment: MIC determination; assay type: cell-based; settings: Staphylococcus epidermidis, ATCC12228
# Ab ATCC 19606 [6] = experiment: Time-kill curves; settings: 1×MIC and 4×MIC, up to 24 h
smiles,measurement,setting,value
O=C(NNc1ccc(Cl)cc1)c1ccc(F)cn1 [Compound 3e],MIC,"S. enterica ATCC 14028; Table 4, read-out: MIC S. enterica ATCC 14028",8 µg/mL
same,MIC,"S. enterica ATCC 14028; Table 5, Mueller-Hinton medium, H = S. enterica ATCC 14028, read-out: MIC strain H",64 µg/mL
same,MIC,E. coli MC1061,16 µg/mL
same,MIC,"E. cloacae ATCC 13047; Table 4, read-out: MIC E. cloacae ATCC 13047",4 µg/mL
same,MIC,"E. cloacae ATCC 13047; Table 5, Mueller-Hinton medium, E = E. cloacae ATCC 13047, read-out: MIC strain E",16 µg/mL
same,effect on biofilm formation (prevention),[1],biofilm formation was abolished at concentrations above MIC; also recorded: inhibited biofilm formation
same,emergence of resistance (in words),Ab ATCC 19606 [2],not observed even after 15 passages; also recorded: Lack of resistance
same,MIC,"S. aureus ATCC 25923; Table 4, read-out: MIC S. Aureus ATCC 25923",> 16 µg/mL
same,MIC,"S. aureus ATCC 25923; Table 5, Mueller-Hinton medium, B = S. aureus ATCC 25923, read-out: MIC strain B",> 64 µg/mL
same,MIC,"B. anthracis Sterne F32; STERNEF32, read-out: MIC B. anthracis Sterne F32",> 16 µg/mL
same,MIC,"B. anthracis Sterne F32; STERNEF32, read-out: MIC strain A",> 64 µg/mL
same,inhibition of growth,[3],17%
same,MIC,Y. pestis CO92,8 µg/mL
same,MIC,M. smegmatis,4 µg/mL
same,MIC,P. aeruginosa ATCC 27853,> 64 µg/mL
same,MIC,K. pneumoniae ATCC 27736,64 µg/mL
same,effect on preformed biofilm (disruption),[4],did not disrupt a preformed Ab biofilm; also recorded: did not disrupt the preformed biofilm
same,MIC,"[5]; Table 4, read-out: MIC S. epidermidis ATCC 12228",> 16 µg/mL
same,MIC,"[5]; Table 5, Mueller-Hinton medium, C = S. epidermidis ATCC 12228, read-out: MIC strain C",> 64 µg/mL
same,bacteriostatic or bactericidal (time-kill),Ab ATCC 19606 [6],bacteriostatic
